Tests used:
[1] = Polymer dynamic viscoelasticity (DMA, tension mode) of the cured product; assay type: physicochemical; settings: for Tg (glass-transition temperature): maximum of tan δ, frequency 11.0 Hz
Experimental: The obtained monomer was homogenized with 0.5 parts by mass of PERHEXA HC (producer: NOF Corporation) and 0.2 mL of acetone added thereto, was subsequently poured into a 10 mm×40 mm×0.5 mm silicone rubber sheet mold prepared on an aluminum plate, and was transferred into a vacuum oven. Acetone solvent was first vaporized while maintaining the temperature at room temperature and the pressure at 20 cmHg to 40 cmHg, and thereafter the pressure was restored to normal pressure and curing was performed for 5 hours at 140° C. to prepare a cured product. The cured product that was prepared was evaluated by measurement as described below using a tension mode of a dynamic mechanical analyzer (DMA).
The cured product was set in the dynamic mechanical analyzer (producer: TA Instruments, product name: RSA3) and the device was used to measure the storage modulus (E′) in a temperature range of from 30° C. to 300° C. with a heating rate of 10.0° C./min. Furthermore, the temperature corresponding to a maximum value of tan δ (loss modulus/storage modulus) obtained under a measurement condition of a frequency of 11.0 Hz was taken to be the glass-transition temperature (Tg).

[2] = Monomer solubility in various solvents; assay type: physicochemical; settings: 40 mg monomer in 1.0 mL
Experimental: The solubility of 40 mg of the obtained monomer in 1.0 mL of various solvents (methyl ethyl ketone (MEK), acetone, propylene glycol monomethyl ether acetate (PGMEA), and cyclohexanone) was evaluated.

[3] = Polymer heat resistance (thermogravimetric analyzer); assay type: physicochemical; settings: homopolymer
Experimental: Heat resistance of the polymer used in (i) evaluation of volume change upon polymerization was evaluated using a thermogravimetric analyzer (producer: Seiko Instruments Incorporated, product name: EXSTAR6000). Furthermore, thermogravimetric change of the obtained polymer was measured to obtain a temperature at which a 10% reduction in weight was reached and the 10% weight loss temperature was taken to be the pyrolysis temperature (Td^10).

[4] = background statement; cited from earlier work
[5] = Volume change upon polymerization (monomer and polymer density by dry automatic pycnometer); assay type: physicochemical; settings: for Volume change: ((Monomer density)−(Polymer density))/(Monomer density)×100, positive = expansion, negative = shrinkage; for Polymer density: after polymerization; for Polymer density / Monomer density: 25° C.; for Monomer density: prior to polymerization
Experimental: Volume change relative to monomer volume refers to the change in volume of the polymer relative to the volume of the monomer or monomers that are constituent components of the polymer. This volume change relative to monomer volume is obtained through the following equation by measuring the density of the monomer(s) at 25° C. prior to polymerization (monomer density) and the density of the polymer at 25° C. after polymerization (polymer density). ((Monomer density)−(Polymer density))/(Monomer density)×100(%)
First, polymerization of the obtained monomer (compound represented by structural formula (6)) was performed as follows.
A freezing ampoule (20 mL) was charged with 4.03 mg of AIBN (4 mol %), 440.2 mg (0.61 mmol) of Ad-MVCP, and 0.267 g (0.31 mL) of toluene, and the monomer was dissolved. Thereafter, freeze drying was performed three times and dissolved oxygen was removed. The freezing ampoule was immersed in an oil bath and was heated for 48 hours at 60° C. to polymerize the monomer. After polymerization, the freezing ampoule was cooled by liquid nitrogen to quench radicals. Next, 50 mL of toluene was added to the freezing ampoule in order to dissolve undissolved components other than the polymer and suction filtration was then performed. Polymer filtered onto filter paper as a result was washed with toluene and acetone, was vacuum dried for 48 hours at 100° C., and was collected as a white solid polymer. The collected polymer was used as an evaluation sample.
The volume change upon polymerization was calculated using the following equation by measuring the monomer density and polymer density of each sample prepared by the procedure described above using a dry automatic pycnometer (AccuPyc II 1340 produced by Shimadzu Corporation). ((Monomer density)−(Polymer density))/(Monomer density)×100(%)
A positive calculated value indicates volume expansion whereas a negative calculated value indicates volume shrinkage.
Note that in Comparative Example 3, polymerization of the monomer was performed by bulk polymerization based on the aforementioned document. A freezing ampoule (20 mL) was charged with 15.8 mg (0.096 mmol) of AIBN and 1.000 g (2.41 mmol) of Me-MVCP, and the monomer was dissolved. Thereafter, freeze drying was performed three times and dissolved oxygen was removed. The freezing ampoule was immersed in an oil bath and was heated for 48 hours at 60° C. to polymerize the monomer. After polymerization, the freezing ampoule was cooled by liquid nitrogen to quench radicals. Next, 50 mL of toluene was added to the freezing ampoule in order to dissolve undissolved components other than the polymer and suction filtration was then performed. Polymer filtered onto filter paper as a result was sufficiently washed with toluene and acetone, was vacuum dried for 48 hours while heating at 100° C., and was collected as a white solid polymer. The collected polymer was used as an evaluation sample.
Note that in Example 2, 0.159 g (0.479 mmol) of DCP, 0.341 g (0.479 mmol) of Ad-MVCP, and 0.2 mL of toluene (dehydrated) were added into an ampoule with a stirrer, were heated to 70° C., and were homogenized by stirring. After performing cooling to room temperature, a dilute solution of AIBN (6.3 mg (0.038 mmol) of AIBN dissolved in 0.28 mL of toluene (dehydrated)) was added to the ampoule. The ampoule was sealed using a gas burner after performing freeze degassing of the ampoule. The ampoule was immersed in an oil bath and a reaction was carried out for 48 hours at 60° C. After the reaction, the ampoule was immersed in liquid nitrogen and a polymer was collected. The resultant polymer was sufficiently washed with toluene and acetone and was vacuum dried for 48 hours while heating at 100° C., and a white solid polymer was collected. The collected polymer was used as an evaluation sample.
Ad-MVCP in an amount of 0.153 g (0.215 mmol) and DCP in an amount of 0.072 g (0.216 mmol) were dissolved and homogenized in 0.3 mL of acetone. […]

Tg (glass-transition temperature) [1] [°C]	Solubility ([2]; Acetone)	Solubility ([2]; Cyclohexanone)	Solubility ([2]; MEK)	Solubility ([2]; PGMEA)	Td^10 (pyrolysis temperature, 10% weight loss temperature) [3] [°C]	Volume change [5]	Polymer density [5] [g/mL]	Monomer density [5] [g/mL]	Compound	solubility in solvents such as acetone [4]	E′ (storage modulus) ([1]; 50° C., 5 hours at 140° C.)	E′ (storage modulus) ([1]; 120° C.)	E′ (storage modulus) ([1]; 140° C.)	E′ (storage modulus) ([1]; 160° C.)
23	Poor	Mediocre	Poor	Poor	361	+4.3%	1.127	1.178	C=CC1CC1(C(=O)OC12CC3CC(CC(C3)C1)C2)C(=O)OC12CC3CC(CC(C3)C1)C2 (stereo not shown) [Comparative Example 2, 1,1-bis[(1-adamantyloxy)carbonyl]-2-vinylcyclopropane]	poor				
235	Excellent	Excellent	Excellent	Excellent	399	+6.1%	1.198	1.275	C=CC1CC1(C(=O)OC12CC3CC(CC(C3)C1)C2)C(=O)OC12CC3CC(C1)CC(OC(=O)C1(C(=O)OC45CC6CC(CC(C6)C4)C5)CC1C=C)(C3)C2 (stereo not shown) [Example 1, 1,3-bis[(1-adamantyloxycarbonyl-2-vinylcyclopropane-1-yl)carbonyloxy]adamantane]		1.10 × 10^9 Pa	7.40 × 10^8 Pa	6.60 × 10^8 Pa	7.00 × 10^8 Pa

Compound	Tg (glass-transition temperature) [1] [°C]	Solubility ([2]; Acetone)	Solubility ([2]; Cyclohexanone)	Solubility ([2]; MEK)	Solubility ([2]; PGMEA)	Td^10 (pyrolysis temperature, 10% weight loss temperature) [3] [°C]	Volume change [5]	Polymer density [5] [g/mL]	Monomer density [5] [g/mL]	solubility in solvents such as acetone [4]	E′ (storage modulus) ([1]; 50° C., 5 hours at 140° C.)	E′ (storage modulus) ([1]; 120° C.)	E′ (storage modulus) ([1]; 140° C.)	E′ (storage modulus) ([1]; 160° C.)
tricyclodecane dimethanol dimethacrylate [Comparative Example 1]	>271.1						−8.5%	1.194	1.101		1.70 × 10^9 Pa	9.60 × 10^8 Pa	8.00 × 10^8 Pa	6.60 × 10^8 Pa

— patent publication US9580524B2, “Vinylcyclopropane, monomer composition, polymer, polymer composition, and article” (Dexerials Corporation, priority 2014, dated 2017)
